Data from patent publication US10202415B1, “Method of synthesizing of 3-oxolupenal nanoparticles” (KING SAUD UNIVERSITY, priority 2017, dated 2019).

Key:
Test in all cases: Antimicrobial activity, agar diffusion technique
Format in all cases: cell-based
[1] = tested on: Geotricum candidum (RCMB 05097)
[2] = tested on: Candida albicans (RCMB 05036)
[3] = tested on: Absidia corymbifera (RCMB 02564)
[4] = tested on: Staphylococcus aureus (RCMB 010027)
[5] = tested on: Staphylococcus epidermidis (RCMB 010024)
[6] = tested on: Streptococcus pyogenes (RCMB 010015)
[7] = tested on: Proteous vulgaris (RCMB 010085)
[8] = tested on: Klebsiella pneumoniae (RCMB 0010093)
[9] = tested on: Salmonella enteritidis(RCMB 010084)

For C[C@@H]1[C@H](O)[C@@H](C)/C=C/C=C/C=C/C=C/C=C/C=C/C=C/[C@H](O[C@@H]2O[C@H](C)[C@@H](O)[C@H](N)[C@@H]2O)C[C@@H]2O[C@](O)(C[C@@H](O)C[C@@H](O)[C@H](O)CC[C@@H](O)C[C@@H](O)CC(=O)O[C@H]1C)C[C@H](O)[C@H]2C(=O)O [Amphotericin B], the “Zone of Inhibition (±S.D.)” value [1] was 27.0 ± 0.20, the “Zone of Inhibition (±S.D.)” value [2] was 25.7 ± 0.10 and the “Zone of Inhibition (±S.D.)” value [3] was 23.0 ± 0.10.

For CC1(C)S[C@@H]2[C@H](NC(=O)[C@H](N)c3ccccc3)C(=O)N2[C@H]1C(=O)O [Ampicillin], the “Zone of Inhibition (±S.D.)” value [4] was 27.3 ± 0.14, the “Zone of Inhibition (±S.D.)” value [5] was 25.0 ± 0.18 and the “Zone of Inhibition (±S.D.)” value [6] was 26.3 ± 0.34.

With Gentamycin the “Zone of Inhibition (±S.D.)” value [7] was 23.4 ± 0.30, the “Zone of Inhibition (±S.D.)” value [8] was 26.4 ± 0.15 and the “Zone of Inhibition (±S.D.)” value [9] was 25.2 ± 0.18.
